Test results published in patent US11339120B2, “Phenyl derivatives as cannabinoid receptor 2 agonists” (priority 2015, dated 2022).
Where two headings read alike, the source gives them in different places.

Legend:
[1] = molecular target: T1, human CB1 receptors (Homo sapiens, UniProt P21554); test: functional cAMP assay, CHO cells expressing human CB1; assay type: cell-based
T1 construct: expressed in transfected cells; host or cells: CHO cells
Protocol: (§1) CHO cells expressing human CB1 or CB2 receptors are seeded 17-24 hours prior to the experiment 50.000 cells per well in a black 96 well plate with flat clear bottom (Corning Costar #3904) in DMEM (Invitrogen No. 31331), 1×HT supplement, with 10% fetal calf serum and incubated at 5% CO2 and 37° C. in a humidified incubator. The growth medium was exchanged with Krebs Ringer Bicarbonate buffer with 1 mM IBMX and incubated at 30° C. for 30 min. Compounds were added to a final assay volume of 100 μl and incubated for 30 min at 30° C. Using the cAMP-Nano-TRF detection kit the assay (Roche Diagnostics) was stopped by the addition of 50 μl lysis reagent (Tris, NaCl, 1.5% Triton X100, 2.5% NP40, 10% NaN3) and 50 μl detection solutions (20 μM mAb Alexa700-cAMP 1:1, and 48 μM Ruthenium-2-AHA-cAMP) and shaken for 2 h at room temperature. The time-resolved energy transfer is measured by a TRF reader (Evotec Technologies GmbH), equipped with a ND:YAG laser as excitation source. The plate is measured twice with the excitation at 355 nm and at the emission with a delay of 100 ns and a gate of 100 ns, total exposure time 10 s at 730 (bandwidth 30 nm) or 645 nm (bandwidth 75 nm), respectively. The FRET signal is calculated as follows: FRET=T730-Alexa730-P(T645-B645) with P=Ru730-B730/Ru645-B645, where T730 is the test well measured at 730 nM, T645 is the test well measured at 645 nm, B730 and B645 are the buffer controls at 730 nm and 645 nm, respectively. cAMP content is determined from the function of a standard curve spanning from 10 μM to 0.13 nM cAMP.
(§2) EC50 values were determined using Activity Base analysis (ID Business Solution, Limited). The EC50 values for a wide range of cannabinoid agonists generated from this assay were in agreement with the values published in the scientific literature.

[2] = molecular target: T2, human CB2 receptors (Homo sapiens, UniProt P34972); test: functional cAMP assay, CHO cells expressing human CB2; assay type: cell-based
T2 construct: expressed in transfected cells; host or cells: CHO cells
Protocol: as §1, §2

[3] = functional cAMP assay, CHO cells expressing human CB2, read-out: Human CB2 EC50

T2 sequence (P34972 whole entry): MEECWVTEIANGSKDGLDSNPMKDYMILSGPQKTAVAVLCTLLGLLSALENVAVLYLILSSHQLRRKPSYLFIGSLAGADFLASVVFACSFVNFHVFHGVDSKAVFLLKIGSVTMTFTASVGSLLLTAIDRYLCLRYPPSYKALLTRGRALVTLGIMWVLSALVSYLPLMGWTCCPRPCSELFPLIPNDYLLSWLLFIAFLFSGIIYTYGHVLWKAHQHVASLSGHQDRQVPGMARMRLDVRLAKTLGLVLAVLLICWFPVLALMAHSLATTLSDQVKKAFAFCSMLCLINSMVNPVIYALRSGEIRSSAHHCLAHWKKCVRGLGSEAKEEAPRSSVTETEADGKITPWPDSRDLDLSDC
T1 sequence (P21554 whole entry): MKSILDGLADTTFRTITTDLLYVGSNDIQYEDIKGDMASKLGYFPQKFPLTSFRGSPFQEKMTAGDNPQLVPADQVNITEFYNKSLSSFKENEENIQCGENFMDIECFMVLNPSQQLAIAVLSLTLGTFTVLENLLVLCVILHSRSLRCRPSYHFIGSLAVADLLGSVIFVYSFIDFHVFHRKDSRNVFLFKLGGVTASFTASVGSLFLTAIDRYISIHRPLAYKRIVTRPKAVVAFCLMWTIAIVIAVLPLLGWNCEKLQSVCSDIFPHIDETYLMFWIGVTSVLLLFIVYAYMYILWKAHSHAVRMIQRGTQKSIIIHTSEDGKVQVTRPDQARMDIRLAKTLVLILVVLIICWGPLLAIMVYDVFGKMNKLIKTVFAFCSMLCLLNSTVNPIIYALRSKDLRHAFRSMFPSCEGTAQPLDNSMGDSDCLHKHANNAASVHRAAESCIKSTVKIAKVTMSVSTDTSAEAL

SMILES	EC50 [1]	EC50 [2]	EC50 [2, 3]
C[C@@](CC(N)=O)(NC(=O)c1ccc(C2CC2)c(OCC(F)(F)F)c1)C1CC1 (single isomer, unassigned) [Example 35, (−)-N-[4-Amino-2-cyclopropyl-4-oxobutan-2-yl]-4-cyclopropyl-3-(2,2,2-trifluoroethoxy)benzamide]	> 10000 nM	8.56 nM	
Cc1nc([C@](C)(CC2CC2)NC(=O)c2ccc(C3CC3)c(OC(C)C)c2)no1 (single isomer, unassigned) [Example 38, 4-Cyclopropyl-N-[(2S)-1-cyclopropyl-2-(5-methyl-1,2,4-oxadiazol-3-yl)propan-2-yl]-3-[(propan-2-yl)oxy]benzamide or enantiomer]	> 10000 nM	26.6 nM	
Cc1ccc(C(=O)N[C@@H](CC(C)C)C(N)=O)cc1OCC1CC1 [Example 1, N-[(2S)-1-amino-4-methyl-1-oxopentan-2-yl]-3-(cyclopropylmethoxy)-4-methylbenzamide]	> 10000 nM		136 nM
Cc1nc(C(C)(C)NC(=O)c2ccc(C)c(OCC3CC3)c2)no1 [Example 2, 3-(Cyclopropylmethoxy)-4-methyl-N-[2-(5-methyl-1,2,4-oxadiazol-3-yl)propan-2-yl]benzamide]	> 10000 nM		492 nM
Cc1nc(C(C)(C)NC(=O)c2ccc(C3CC3)c(OCC3CC3)c2)no1 [Example 3, 4-Cyclopropyl-3-(cyclopropylmethoxy)-N-[2-(5-methyl-1,2,4-oxadiazol-3-yl)propan-2-yl]benzamide]	> 10000 nM		122 nM
CC(C)C[C@H](NC(=O)c1ccc(C2CC2)c(OCC2CC2)c1)C(N)=O [Example 4, N^2-[4-Cyclopropyl-3-(cyclopropylmethoxy)benzoyl]-L-leucinamide]	> 10000 nM	18 nM	
CC(C)(CO)NC(=O)c1ccc(C2CC2)c(OCC2CC2)c1 [Example 5, 4-Cyclopropyl-3-(cyclopropylmethoxy)-N-(1-hydroxy-2-methylpropan-2-yl)benzamide]	> 10000 nM		130 nM
CC(C)(NC(=O)c1ccc(C2CC2)c(OCC2CC2)c1)c1nccs1 [Example 6, 4-Cyclopropyl-3-(cyclopropylmethoxy)-N-[2-(1,3-thiazol-2-yl)propan-2-yl]benzamide]	539 nM	26 nM	
CCOC(=O)C(CC)(CC)NC(=O)c1ccc(C2CC2)c(OCC2CC2)c1 [Example 7, Ethyl 2-[4-cyclopropyl-3-(cyclopropylmethoxy)benzamido]-2-ethylbutanoate]	> 10000 nM	1.44 nM	
CCC(CC)(NC(=O)c1ccc(C2CC2)c(OCC2CC2)c1)C(=O)O [Example 8, 2-[4-Cyclopropyl-3-(cyclopropylmethoxy)benzamido]-2-ethylbutanoic acid]	> 10000 nM		2170 nM
CCC(CC)(NC(=O)c1ccc(C2CC2)c(OCC2CC2)c1)C(=O)N1CC(F)(F)C1 [Example 9, 4-Cyclopropyl-3-(cyclopropylmethoxy)-N-[3-(3,3-difluoroazetidine-1-carbonyl)pentan-3-yl]benzamide]	> 10000 nM	7.56 nM	
Cc1nc(C(C)(C)NC(=O)c2ccc(N3CC(F)(F)C3)c(OCC3CC3)c2)no1 [Example 10, 3-(Cyclopropylmethoxy)-4-(3,3-difluoroazetidin-1-yl)-N-[2-(5-methyl-1,2,4-oxadiazol-3-yl)propan-2-yl]benzamide]	> 10000 nM	32.9 nM	
CC(C)(NC(=O)c1ccc(N2CC(F)(F)C2)c(OCC2CC2)c1)c1noc(N)n1 [Example 11, N-[2-(5-Amino-1,2,4-oxadiazol-3-yl)propan-2-yl]-3-(cyclopropylmethoxy)-4-(3,3-difluoroazetidin-1-yl)benzamide]	> 10000 nM	98.7 nM	
CNC(=O)[C@H](CC(C)C)NC(=O)c1ccc(N2CC(F)(F)C2)c(OCC2CC2)c1 [Example 12, N^2-[3-(cyclopropylmethoxy)-4-(3,3-difluoroazetidin-1-yl)benzoyl]-N-methyl-L-leucinamide]	> 10000 nM	66.4 nM	
CC(C)C[C@@H](CO)NC(=O)c1ccc(N2CC(F)(F)C2)c(OCC2CC2)c1 [Example 13, 3-(Cyclopropylmethoxy)-4-(3,3-difluoroazetidin-1-yl)-N-[(2S)-1-hydroxy-4-methylpentan-2-yl]benzamide]	> 10000 nM	21.8 nM	
CC(C)(C)c1noc(-c2ccc(C3CC3)c(OCC3CC3)c2)n1 [Example 14, 3-tert-Butyl-5-[4-cyclopropyl-3-(cyclopropylmethoxy)phenyl]-1,2,4-oxadiazole]	> 10000 nM	23.3 nM	
NC(=O)CC1(NC(=O)c2ccc(C3CC3)c(OCC3CC3)c2)COC1 [Example 15, N-[3-(2-Amino-2-oxoethyl)oxetan-3-yl]-4-cyclopropyl-3-(cyclopropylmethoxy)benzamide]	> 10000 nM	34.1 nM	
NC(=O)CC1(NC(=O)c2ccc(C3CC3)c(OCC3CC3)c2)CS(=O)(=O)C1 [Example 16, N-[3-(2-Amino-2-oxoethyl)-1,1-dioxothietan-3-yl]-4-cyclopropyl-3-(cyclopropylmethoxy)benzamide]	> 10000 nM	2.65 nM	
NC(=O)[C@@H]1CC(F)(F)CN1C(=O)c1ccc(C2CC2)c(OCC2CC2)c1 [Example 17, 1-[4-Cyclopropyl-3-(cyclopropylmethoxy)benzoyl]-4,4-difluoro-L-prolinamide]	> 10000 nM	0.51 nM	
CCC(CC)(NC(=O)c1ccc(C2CC2)c(OCC2CC2)c1)C(N)=O [Example 18, N-(3-Carbamoylpentan-3-yl)-4-cyclopropyl-3-(cyclopropylmethoxy)benzamide]	> 10000 nM		233 nM
CNC(=O)[C@H](CC(C)C)NC(=O)c1ccc(C2CC2)c(OCC2CC2)c1 [Example 19, N^2-[4-cyclopropyl-3-(cyclopropylmethoxy)benzoyl]-N-methyl-L-leucinamide]	> 10000 nM	19.6 nM	
Cc1nc([C@@](C)(CS(C)(=O)=O)NC(=O)c2ccc(C3CC3)c(OCC3CC3)c2)no1 [Example 20, 4-Cyclopropyl-3-(cyclopropylmethoxy)-N-[(2S)-1-(methanesulfonyl)-2-(5-methyl-1,2,4-oxadiazol-3-yl)propan-2-yl]benzamide]	> 10000 nM	31.3 nM	
Cc1nc([C@](C)(CS(C)(=O)=O)NC(=O)c2ccc(C3CC3)c(OCC3CC3)c2)no1 [Example 21, 4-Cyclopropyl-3-(cyclopropylmethoxy)-N-[(2R)-1-(methanesulfonyl)-2-(5-methyl-1,2,4-oxadiazol-3-yl)propan-2-yl]benzamide]	> 10000 nM	297 nM	
NC(=O)C1CC2(CC2)CN1C(=O)c1ccc(C2CC2)c(OCC2CC2)c1 (stereo not drawn) [Example 22, 5-[4-Cyclopropyl-3-(cyclopropylmethoxy)benzoyl]-5-azaspiro[2.4]heptane-6-carboxamide]	> 10000 nM	28.1 nM	
CC(C)(C)c1nc(-c2ccc(C3CC3)c(OCC(F)(F)F)c2)no1 [Example 23, 5-tert-Butyl-3-[4-cyclopropyl-3-(2,2,2-trifluoroethoxy)phenyl]-1,2,4-oxadiazole]	> 10000 nM	25.9 nM	
CC(C)(C)c1nc(-c2ccc(C3CC3)c(OCC(F)F)c2)no1 [Example 24, 5-tert-Butyl-3-[4-cyclopropyl-3-(2,2-difluoroethoxy)phenyl]-1,2,4-oxadiazole]	> 10000 nM	15.5 nM	
Cc1nc([C@@](C)(CC2CC2)NC(=O)c2ccc(C3CC3)c(OCC(F)(F)F)c2)no1 [Example 25, (−)-4-Cyclopropyl-N-[1-cyclopropyl-2-(5-methyl-1,2,4-oxadiazol-3-yl)propan-2-yl]-3-(2,2,2-trifluoroethoxy)benzamide]	> 10000 nM	40.3 nM	
Cc1nc([C@](C)(CC2CC2)NC(=O)c2ccc(C3CC3)c(OCC(F)(F)F)c2)no1 [Example 26, (+)-4-Cyclopropyl-N-[1-cyclopropyl-2-(5-methyl-1,2,4-oxadiazol-3-yl)propan-2-yl]-3-(2,2,2-trifluoroethoxy)benzamide]	> 10000 nM	36.3 nM	
NC(=O)CC1(NC(=O)c2ccc(C3CC3)c(OCC(F)(F)F)c2)CS(=O)(=O)C1 [Example 27, N-[3-(2-Amino-2-oxoethyl)-1,1-dioxothietan-3-yl]-4-cyclopropyl-3-(2,2,2-trifluoroethoxy)benzamide]	> 10000 nM	98 nM	
Cc1nc([C@](C)(CS(C)(=O)=O)NC(=O)c2ccc(C3CC3)c(OCC(F)(F)F)c2)no1 [Example 28, 4-Cyclopropyl-N-[(2R)-1-(methanesulfonyl)-2-(5-methyl-1,2,4-oxadiazol-3-yl)propan-2-yl]-3-(2,2,2-trifluoroethoxy)benzamide]	> 10000 nM	79.9 nM	
